Assay results published in publication PMC8011931, “Identification, Structure–Activity Relationship, and Biological Characterization of 2,3,4,5-Tetrahydro-1H-pyrido[4,3-b]indoles as a Novel Class of CFTR Potentiators” (Journal of Medicinal Chemistry, 2020).

Target: F508del-CFTR (Homo sapiens, UniProt P13569, DEL508-508)
Experiment: HS-YFP-based assay for CFTR activity on F508del-CFTR FRT cells rescued at 32 °C for 24 h
Format: cell-based
Set-up: expressed in transfected cells; key to Emax: fold increase in F508del-CFTR rescue relative to hit 3 (normalized)
Details: for EC50: F508del-CFTR FRT cells rescued at 32 °C for 24 h, plus forskolin; for EC50 / Emax (FRT F508del-CFTR): mean ± SD (n = 3–6), n.a.: not active (up to 20 μM); for Emax: supplementary csv, same data as Tables 1–3; for Emax (FRT F508del-CFTR): normalized for the activity of analogue 3; for fold decrease (drop) in potency with respect to 30: EC50, F508del-CFTR FRT cells
Procedure: The chemical library was screened in duplicate on a Fischer rat thyroid (FRT) cell line, stably coexpressing F508del-CFTR and the halide-sensitive yellow fluorescent protein, HS-YFP.[23],[34],[35] To overcome the F508del trafficking defect, cells were initially incubated for 24 h at 32 °C and then acutely treated (15–30 min) with a single compound (5 μM) in combination with forskolin (10 μM). After stimulation, the F508del-CFTR activity in the plasma membrane was calculated by measuring the rate of fluorescence quenching arising from iodide influx.[34] This activity was compared to that of wells containing forskolin alone (negative control) or forskolin plus VX-770 (1 μM, as a positive control) (Figure 2A). Analysis of screening performance with the Z′ method gave a score of 0.6, which can be considered optimal for this type of assay. The activity scores for each compound were then plotted as an ordered distribution (Figure 2B). All compounds whose average activity calculated from the two rounds of screening was greater than 185% with respect to the negative control (i.e., forskolin alone) were considered as primary hits.
The primary hits were confirmed by testing them at different concentrations, in order to extrapolate the dose–response relationship. First, we focused on the F508del mutant. The compounds were tested in the low micromolar range, in the presence of forskolin (10 μM), on F508del-CFTR FRT cells following rescue of the trafficking defect by low-temperature incubation, as done for the primary screening. The most interesting hits were subsequently tested for their ability to overcome the more severe gating defect of pure class III mutant using FRT cells stably expressing G551D-CFTR (Figure 3B).
The role of the heteroaryl group (A) acylating the position 2 of the tetrahydro-γ-carboline was initially explored by modifying the substituent on the pyrazolyl residue and replacing the pyrazole with other rings, while keeping the 8-methoxy carboline moiety unmodified. The activity of each compound is described in terms of normalized maximal efficacy (Emax), the maximum fold increase in the rescue of F508del-CFTR activity with respect to hit 3, and potency (EC50), the concentration producing half-maximal efficacy.
FRT cells stably expressing mutant F508del-CFTR or G551D-CFTR and the halide-sensitive yellow fluorescent protein (HS-YFP) YFP-H148Q/I152L and CFBE41o-cells stably expressing F508del-CFTR and HS-YFP were generated as previously described.[21],[57] FRT cells were cultured using the Coon’s modification of Ham’s F12 medium, while CFBE41o-cells were cultured in the modified Eagle’s medium. Media were supplemented with 10% fetal calf serum, 2 mM L-glutamine, 100 U/mL of penicillin, and […] of streptomycin. For functional assays of CFTR activity based on the HS-YFP assays, CFBE41o- or FRT cells were plated (50,000 cells/well) on clear-bottom 96-well black microplates (Corning Life Sciences, Acton, MA). The following day, cells were assayed. In the case of FRT cells expressing F508del-CFTR, plates were kept at 32 °C (or treated with correctors at 37 °C where indicated) for an additional 24 h to rescue the mutant trafficking defect, before assays.
Prior assay, cells were washed with phosphate-buffered saline (PBS) containing (in mM) 137 NaCl, 2.7 KCl, 8.1 Na2HPO4, 1.5 KH2PO4, 1 CaCl2, and 0.5 MgCl2. Cells were then incubated for 25 min with 60 μL of PBS plus forskolin (20 μM) and test compounds (at the desired concentration) to stimulate mutant CFTR. Cells were then transferred to microplate readers (FluoStar Optima; BMG Labtech, Offenburg, Germany) for CFTR activity determination. The plate readers were equipped with high-quality excitation (HQ500/20X: 500 ± 10 nm) and emission (HQ535/30M: 535 ± 15 nm) filters for YFP (Chroma Technology). […]

F508del-CFTR, sequence (P13569 with tags, fused parts or gaps DEL508-508): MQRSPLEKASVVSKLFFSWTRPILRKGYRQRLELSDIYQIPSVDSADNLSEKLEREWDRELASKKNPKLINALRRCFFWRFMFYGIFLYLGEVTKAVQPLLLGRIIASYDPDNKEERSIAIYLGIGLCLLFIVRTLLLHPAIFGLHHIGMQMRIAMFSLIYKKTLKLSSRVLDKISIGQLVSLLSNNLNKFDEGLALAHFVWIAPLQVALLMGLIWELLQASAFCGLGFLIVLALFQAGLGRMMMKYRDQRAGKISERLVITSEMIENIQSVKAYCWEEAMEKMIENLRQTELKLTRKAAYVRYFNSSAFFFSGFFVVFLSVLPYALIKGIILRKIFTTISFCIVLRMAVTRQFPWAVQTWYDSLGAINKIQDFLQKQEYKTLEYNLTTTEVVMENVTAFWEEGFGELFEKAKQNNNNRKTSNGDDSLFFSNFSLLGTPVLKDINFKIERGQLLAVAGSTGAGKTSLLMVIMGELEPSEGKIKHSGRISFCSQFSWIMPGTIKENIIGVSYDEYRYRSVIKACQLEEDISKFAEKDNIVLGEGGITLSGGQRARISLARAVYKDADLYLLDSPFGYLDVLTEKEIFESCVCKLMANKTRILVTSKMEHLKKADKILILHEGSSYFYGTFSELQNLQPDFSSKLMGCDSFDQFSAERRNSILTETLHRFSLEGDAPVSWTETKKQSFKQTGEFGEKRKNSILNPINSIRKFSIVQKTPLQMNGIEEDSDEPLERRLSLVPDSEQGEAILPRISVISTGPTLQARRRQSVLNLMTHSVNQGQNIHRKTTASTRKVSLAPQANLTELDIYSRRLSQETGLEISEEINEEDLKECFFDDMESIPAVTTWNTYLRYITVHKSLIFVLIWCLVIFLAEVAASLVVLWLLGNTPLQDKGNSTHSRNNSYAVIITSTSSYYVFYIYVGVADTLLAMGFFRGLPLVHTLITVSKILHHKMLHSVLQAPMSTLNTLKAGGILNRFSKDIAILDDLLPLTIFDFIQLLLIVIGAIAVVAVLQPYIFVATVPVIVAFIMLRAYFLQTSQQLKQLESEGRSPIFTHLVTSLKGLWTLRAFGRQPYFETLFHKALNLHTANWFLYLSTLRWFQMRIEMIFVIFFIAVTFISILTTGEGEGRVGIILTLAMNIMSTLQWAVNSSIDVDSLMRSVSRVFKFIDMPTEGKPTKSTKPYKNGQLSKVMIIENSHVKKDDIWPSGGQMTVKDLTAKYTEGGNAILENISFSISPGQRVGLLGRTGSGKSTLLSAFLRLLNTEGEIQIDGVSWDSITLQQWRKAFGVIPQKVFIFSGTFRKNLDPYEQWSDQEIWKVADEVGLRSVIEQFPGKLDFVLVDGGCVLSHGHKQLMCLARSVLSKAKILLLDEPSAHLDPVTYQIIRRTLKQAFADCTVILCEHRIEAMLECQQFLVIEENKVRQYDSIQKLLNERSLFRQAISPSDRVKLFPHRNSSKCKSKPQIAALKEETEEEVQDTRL

| Structure (SMILES) | EC50 | Emax | Emax (FRT F508del-CFTR) | fold decrease (drop) in potency with respect to 30 |
| --- | --- | --- | --- | --- |
| COc1ccc2[nH]c3c(c2c1)CN(C(=O)c1cc(C)[nH]n1)CC3 [Compound 5, (8-Methoxy-1,3,4,5-tetrahydro-2H-pyrido[4,3-b]indol-2-yl)-(5-methyl-1H-pyrazol-3-yl)methanone] | 60 ± 4 µM | 0.59 ± 0.11 | 0.59 ± 0.11 |  |
| COc1ccc2[nH]c3c(c2c1)CN(C(=O)c1cc(-c2ccccc2)[nH]n1)CC3 [Compound 7, (8-Methoxy-1,3,4,5-tetrahydro-2H-pyrido[4,3-b]indol-2-yl)-(5-phenyl-1H-pyrazol-3-yl)methanone] | 0.82 ± 0.17 µM | 0.84 ± 0.23 | 0.84 ± 0.23 |  |
| Cc1cccc2[nH]c3c(c12)CN(C(=O)c1cc(C(F)(F)F)[nH]n1)CC3 [Compound 15, (9-Methyl-1,3,4,5-tetrahydro-2H-pyrido[4,3-b]indol-2-yl)-(5-(trifluoromethyl)-1H-pyrazol-3-yl)methanone] | 0.48 ± 0.12 µM | 0.83 ± 0.09 |  |  |
| Cc1ccc(F)c2[nH]c3c(c12)C1CCC(C3)N1C(=O)c1cc(C(F)(F)F)[nH]n1 (racemic) [Compound 35, (±)-(4-Fluoro-1-methyl-5,6,7,8,9,10-hexahydro-7,10-epiminocyclohepta[b]indol-11-yl)-(5-(trifluoromethyl)-1H-pyrazol-3-yl)methanone] | 1.3 ± 0.3 µM | 0.82 ± 0.07 |  |  |
| O=C(c1cc(C(F)(F)F)[nH]n1)N1CCc2[nH]c3ccccc3c2C1 [Compound 13, (1,3,4,5-Tetrahydro-2H-pyrido[4,3-b]indol-2-yl)-(5-(trifluoromethyl)-1H-pyrazol-3-yl)methanone] | 0.23 ± 0.05 µM | 1.05 ± 0.17 |  |  |
| COc1ccc2[nH]c3c(c2c1)CN(C(=O)c1cc[nH]n1)CC3 [Compound 4, (8-Methoxy-1,3,4,5-tetrahydropyrido[4,3-b]indol-2-yl)-(1H-pyrazol-3-yl)methanone] | 10.6 ± 1.3 µM | 0.17 ± 0.03 | 0.17 ± 0.03 |  |
| COc1ccc2[nH]c3c(c2c1)CN(C(=O)c1cc(C(C)C)[nH]n1)CC3 [Compound 6, (8-Methoxy-1,3,4,5-tetrahydro-2H-pyrido-(5-isopropyl-1H-pyrazol-3-yl)-[4,3-b]indol-2-yl)methanone] | 5.7 ± 0.7 µM | 0.95 ± 0.08 | 0.95 ± 0.08 |  |
| COc1ccc2c(c1)c1c(n2C)CCN(C(=O)c2cc(C(F)(F)F)[nH]n2)C1 [Compound 12, (8-Methoxy-5-methyl-1,3,4,5-tetrahydro-2H-pyrido[4,3-b]indol-2-yl)-(5-(trifluoromethyl)-1H-pyrazol-3-yl)methanone] | 2.1 ± 0.7 µM | 0.85 ± 0.06 | 0.85 ± 0.06 |  |
| Cc1ccc2[nH]c3c(c2c1)CN(C(=O)c1cc(C(F)(F)F)[nH]n1)CC3 [Compound 14, (8-Methyl-1,3,4,5-tetrahydro-2H-pyrido[4,3-b]indol-2-yl)-(5-(trifluoromethyl)-1H-pyrazol-3-yl)methanone] | 0.27 ± 0.09 µM | 0.95 ± 0.11 |  |  |

The next lines start with the values.

| EC50 | Emax | Emax (FRT F508del-CFTR) | fold decrease (drop) in potency with respect to 30 | Structure (SMILES) |
| --- | --- | --- | --- | --- |
| 0.44 ± 0.06 µM | 0.95 ± 0.04 |  |  | O=C(c1cc(C(F)(F)F)[nH]n1)N1CCc2[nH]c3ccc(C(F)(F)F)cc3c2C1 [Compound 21, (8-(Trifluoromethyl)-1,3,4,5-tetrahydro-2H-pyrido[4,3-b]indol-2-yl)-(5-(trifluoromethyl)-1H-pyrazol-3-yl)methanone] |
| 1.1 ± 0.2 µM | 1.31 ± 0.18 | 1.31 ± 0.18 |  | Cc1ccc(F)c2[nH]c3c(c12)CN(C(=O)c1cc(C(F)(F)F)[nH]n1)[C@@H](C)C3 [Compound 40, (S)-(6-Fluoro-3,9-dimethyl-1,3,4,5-tetrahydro-2H-pyrido[4,3-b]indol-2-yl)-(5-(trifluoromethyl)-1H-pyrazol-3-yl)methanone] |
| 0.08 ± 0.02 µM | 1.0 ± 0.22 |  |  | Cc1ccc(F)c2[nH]c3c(c12)C(C)N(C(=O)c1cc(C(F)(F)F)[nH]n1)CC3 (single isomer, unassigned) [Compound 41, (R)- or (S)-(6-Fluoro-1,9-dimethyl-1,3,4,5-tetrahydro-2H-pyrido[4,3-b]indol-2-yl)-(5-(trifluoromethyl)-1H-pyrazol-3-yl)methanone] |
| 1.14 ± 0.13 µM | 1.0 ± 0.08 |  |  | Cc1cccc2c3c([nH]c12)CCN(C(=O)c1cc(C(F)(F)F)[nH]n1)C3 [Compound 17, (6-Methyl-1,3,4,5-tetrahydro-2H-pyrido[4,3-b]indol-2-yl)-(5-(trifluoromethyl)-1H-pyrazol-3-yl)methanone] |
| 0.48 ± 0.05 µM | 0.97 ± 0.11 |  |  | O=C(c1cc(C(F)(F)F)[nH]n1)N1CCc2[nH]c3ccc(F)cc3c2C1 [Compound 19, (8-Fluoro-1,3,4,5-tetrahydro-2H-pyrido[4,3-b]indol-2-yl)(5-(trifluoromethyl)-1H-pyrazol-3-yl)methanone] |
| 1.91 ± 0.26 µM | 0.79 ± 0.13 | 0.79 ± 0.13 |  | Cc1ccc(F)c2[nH]c3c(c12)CN(C(=O)c1cc(C(F)(F)F)[nH]n1)C(C)(C)C3 [Compound 34, (6-Fluoro-3,3,9-trimethyl-1,3,4,5-tetrahydro-2H-pyrido[4,3-b]indol-2-yl)-(5-(trifluoromethyl)-1H-pyrazol-3-yl)methanone] |
| 0.022 ± 0.011 µM | 0.95 ± 0.27 |  |  | Cc1ccc(F)c2[nH]c3c(c12)CN(C(=O)c1cc(C(F)(F)F)[nH]n1)C(C)C3 (racemic) [Compound 33, (±)-(6-Fluoro-3,9-dimethyl-1,3,4,5-tetrahydro-2H-pyrido[4,3-b]indol-2-yl)-(5-(trifluoromethyl)-1H-pyrazol-3-yl)methanone] |
| 2.3 ± 0.3 µM | 0.93 ± 0.16 |  | 38 fold | Cc1ccc(F)c2[nH]c3c(c12)CCN(C(=O)c1cc(C(F)(F)F)[nH]n1)CC3 [Compound 38, (7-Fluoro-10-methyl-1,4,5,6-tetrahydroazepino[4,5-b]indol-3(2H)-yl)-(5-(trifluoromethyl)-1H-pyrazol-3-yl)methanone] |
| 0.2 ± 0.06 µM | 0.22 ± 0.04 |  |  | Cc1ccc2c3c([nH]c2c1)CCN(C(=O)c1cc(C(F)(F)F)[nH]n1)C3 [Compound 16, (7-Methyl-1,3,4,5-tetrahydro-2H-pyrido[4,3-b]indol-2-yl)-(5-(trifluoromethyl)-1H-pyrazol-3-yl)methanone] |
| 0.03 ± 0.02 µM | 1.0 ± 0.3 |  |  | Cc1ccc(F)c2[nH]c3c(c12)C(C)N(C(=O)c1cc(C(F)(F)F)[nH]n1)CC3 (racemic) [Compound 32, (±)-(6-Fluoro-1,9-dimethyl-1,3,4,5-tetrahydro-2H-pyrido[4,3-b]indol-2-yl)-(5-(trifluoromethyl)-1H-pyrazol-3-yl)methanone] |
| 0.15 ± 0.07 µM | 0.66 ± 0.12 |  |  | O=C(c1cc(C(F)(F)F)[nH]n1)N1CCc2[nH]c3c(F)cc(F)cc3c2C1 [Compound 27, (6,8-Difluoro-1,3,4,5-tetrahydro-2H-pyrido[4,3-b]indol-2-yl)-(5-(trifluoromethyl)-1H-pyrazol-3-yl)methanone] |
| 0.94 ± 0.25 µM | 0.65 ± 0.08 |  | more than 15 fold | Cc1ccc(F)c2c3c([nH]c12)CCN(C(=O)c1cc(C(F)(F)F)[nH]n1)C3 [Compound 31, (9-Fluoro-6-methyl-1,3,4,5-tetrahydro-2H-pyrido[4,3-b]indol-2-yl)(5-(trifluoromethyl)-1H-pyrazol-3-yl)methanone] |
